According to ChEMBL document CHEMBL4052756, “α-Pyrone derivatives with cytotoxic activities, from the endophytic fungus Phoma sp. YN02-P-3” (Bioorg Med Chem Lett, 2017):

Columns and labels:
Assay type in all cases: functional, cell-based
[1] = tested on: PC-3; assay: Cytotoxic activity against human PC3 cells
[2] = tested on: HL-60; assay: Cytotoxic activity against human HL60 cells
[3] = tested on: HCT-116; assay: Cytotoxic activity against human HCT116 cells

| SMILES | IC50 [1] [µM] | IC50 [2] [nM] | IC50 [3] [µM] |
| --- | --- | --- | --- |
| COC(=O)/C=C/c1oc(=O)c(COC(C)=O)c(OC)c1COC(C)=O | 0.98 | 520 | 1.32 |
| COc1c(C)c(/C=C/C(=O)O)oc(=O)c1C | > 50 | > 50000 | > 50 |
| COC(=O)/C=C/c1oc(=O)c(CO)c(OC)c1CO | > 50 | > 50000 | > 50 |
| COC(=O)/C=C/c1oc(=O)c(COC(C)=O)c(OC)c1CO | 1.09 | 650 | 2.31 |
| COc1c(C)c(/C=C/C(=O)O)oc(=O)c1CO | > 50 | > 50000 | > 50 |
| COC(=O)C1C(c2oc(=O)c(CO)c(OC)c2CO)C(C(=O)OC)C1c1oc(=O)c(CO)c(OC)c1CO (stereo not drawn) | > 50 | > 50000 | > 50 |
| COC(=O)C1C(c2oc(=O)c(COC(C)=O)c(OC)c2COC(C)=O)C(C(=O)OC)C1c1oc(=O)c(COC(C)=O)c(OC)c1COC(C)=O (stereo not drawn) | – | 4560 | – |
| COc1c(CO)c(/C=C/C(=O)O)oc(=O)c1CO | > 50 | > 50000 | > 50 |
| COC(=O)/C=C/c1oc(=O)c(CO)c(OC)c1COC(C)=O | 5.9 | 1040 | 9.84 |
| O=c1[nH]cc(F)c(=O)[nH]1 [FLUOROURACIL] | 1.6 | 2800 | 17 |
